Values quoted from earlier work as cited in US20250304714A1, “Methods of Treating Metastatic Castration-Resistant Prostate Cancer with Bispecific Anti-PSMA x Anti-CD3 Antibodies Alone or in Combination with Anti-PD-1 Antibodies” (Regeneron Pharmaceuticals, Inc., priority 2022, published 2025).

Key:
[1] = intended dose ˜9±1 mCi per IV injection; cited from earlier work
[2] = multiple phase 1 to 3 studies, prostate cancer patients; cited from earlier work

O=C(O)CC[C@H](NC(=O)N[C@@H](CCCCNC(=O)c1ccc(F)nc1)C(=O)O)C(=O)O [DCFPyL]
Radiation dose from the PET/CT scan [1]: about 7.4 mSv | tolerability [2]: well tolerated
